How the values were obtained:
Assay in all cases: Transient transfection (transactivation) assay in CV-1 cells, GAL4-PPAR LBD chimera, SPAP reporter
Type in all cases: cell-based
[1] = target: T1, hPPAR gamma (Homo sapiens, UniProt P37231); conditions: read-out: EC50 μM HPPARγ
T1 construct: expressed in transfected cells; host or cells: CV-1 cells
T1 sequence (P37231 238-503 limits assumed): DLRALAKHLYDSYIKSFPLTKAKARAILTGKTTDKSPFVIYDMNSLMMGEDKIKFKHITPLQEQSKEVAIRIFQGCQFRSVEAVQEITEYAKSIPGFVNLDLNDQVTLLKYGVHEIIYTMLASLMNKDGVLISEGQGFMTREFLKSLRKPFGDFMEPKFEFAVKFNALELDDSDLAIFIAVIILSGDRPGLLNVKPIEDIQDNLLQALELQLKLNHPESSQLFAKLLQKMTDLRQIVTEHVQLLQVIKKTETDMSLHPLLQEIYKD
Description: Compounds were screened for functional potency in transient transfection assays in CV-1 cells for their ability to activate the PPAR subtypes (transactivation assay). A previously established chimeric receptor system was utilized to allow comparison of the relative transcriptional activity of the receptor subtypes on the same target gene and to prevent endogenous receptor activation from complicating the interpretation of results. […] The ligand binding domains for murine and human PPAR alpha, PPAR gamma, and PPAR delta were each fused to the yeast transcription factor GAL4 DNA binding domain. CV-1 cells were transiently transfected with expression vectors for the respective PPAR chimera along with a reporter construct containing five copies of the GAL4 DNA binding site driving expression of secreted placental alkaline phosphatase (SPAP) and beta-galactosidase. After 16 h, the medium was exchanged to DME medium supplemented with 10% delipidated fetal calf serum and the test compound at the appropriate concentration. After an additional 24 h, cell extracts were prepared and assayed for alkaline phosphatase and β-galactosidase activity.

[2] = target: T2, hPPAR delta (Homo sapiens, UniProt Q03181); conditions: read-out: EC50 μM HPPARδ
T2 construct: expressed in transfected cells; host or cells: CV-1 cells
T2 sequence (Q03181 211-439 limits assumed): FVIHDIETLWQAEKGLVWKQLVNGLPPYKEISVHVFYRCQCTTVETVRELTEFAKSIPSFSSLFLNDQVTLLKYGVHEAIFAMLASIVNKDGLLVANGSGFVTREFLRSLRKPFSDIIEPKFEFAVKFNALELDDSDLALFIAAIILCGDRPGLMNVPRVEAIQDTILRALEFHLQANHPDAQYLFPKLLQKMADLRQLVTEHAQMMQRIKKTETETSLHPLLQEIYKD
Description: (§1) Compounds were screened for functional potency in transient transfection assays in CV-1 cells for their ability to activate the PPAR subtypes (transactivation assay). A previously established chimeric receptor system was utilized to allow comparison of the relative transcriptional activity of the receptor subtypes on the same target gene and to prevent endogenous receptor activation from complicating the interpretation of results. See, for example, Lehmann, J. M.; Moore, L. B.; Smith-Oliver, T. A.; Wilkison, W. O.; Willson, T. M.; Kliewer, S. A., An antidiabetic thiazolidinedione is a high affinity ligand for peroxisome proliferator-activated receptor gamma (PPARgamma), J. Biol. Chem., 270, 12953-6 (1995). The ligand binding domains for murine and human PPAR alpha, PPAR gamma, and PPAR delta were each fused to the yeast transcription factor GAL4 DNA binding domain. CV-1 cells were transiently transfected with expression vectors for the respective PPAR chimera along with a reporter construct containing five copies of the GAL4 DNA binding site driving expression of secreted placental alkaline phosphatase (SPAP) and beta-galactosidase. After 16 h, the medium was exchanged to DME medium supplemented with 10% delipidated fetal calf serum and the test compound at the appropriate concentration. After an additional 24 h, cell extracts were prepared and assayed for alkaline phosphatase and β-galactosidase activity. Alkaline phosphatase activity was corrected for transfection efficiency using the beta-galactosidase activity as an internal standard (see, for example, Kliewer, S. A., et. al. Cell 83, 813-819 (1995)). Rosiglitazone (BRL 49653) was used as a positive control in the hPPAR gamma assay. The positive control in the hPPAR alpha assays was 2-4-[2-(3-[4-fluorophenyl]-1-heptylureido)ethyl]-phenoxy-(2-methyl propionic acid (WO 97/36579). The positive control for PPAR delta assays was 2-{2-methyl-4-[({4-methyl-2-{trifluoromethyl)phenyl]-1,3-thiazol-5-yl}methyl)sulfanyl]phenoxy}acetic acid (WO 01/00603). The positive control was (5-{4-[2-(Methyl-pyridin-2-yl-amino)-ethoxy]-benzyl}-thiazolidine-2,4-dione (J. Med. Chem. 1994, 37(23), 3977), for PPAR gamma.
(§2) Activities in three hPPAR subtypes are reported in the table and are expressed in micromolar.

[3] = target: T3, hPPAR alpha (Homo sapiens, UniProt Q07869); conditions: read-out: EC50 μM HPPARα
T3 construct: expressed in transfected cells; host or cells: CV-1 cells
T3 sequence (Q07869 239-466 limits assumed): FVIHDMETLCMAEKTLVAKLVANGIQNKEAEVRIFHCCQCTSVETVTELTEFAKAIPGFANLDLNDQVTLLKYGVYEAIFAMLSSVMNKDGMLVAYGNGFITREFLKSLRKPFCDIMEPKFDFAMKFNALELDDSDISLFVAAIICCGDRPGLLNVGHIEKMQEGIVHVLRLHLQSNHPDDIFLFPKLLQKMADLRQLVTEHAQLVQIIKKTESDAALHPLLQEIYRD
Description: as §1, §2

EC50 [1] [µM]	EC50 [2] [µM]	EC50 [3] [µM]	SMILES
0.353	> 25	0.294	Cc1cc(CNC(=O)c2cc(Cc3ccc(C(C)(C)C)cc3)nn2C)ccc1OC(C)(C)C(=O)O [Example 46, 2-{[4-({[(3-{[4-(1,1-dimethylethyl)phenyl]methyl}-1-methyl-1H-pyrazol-5-yl)carbonyl]amino}methyl)-2-methylphenyl]oxy}-2-methylpropanoic acid]
0.011	> 10	0.009	CCn1nc(C(=O)NCc2ccc(OC(C)(C)C(=O)O)c(C)c2)cc1-c1ccc(C(C)(C)C)cc1 [Example 13, 2-[(4-{[({5-[4-(1,1-dimethylethyl)phenyl]-1-ethyl-1H-pyrazol-3-yl}carbonyl)amino]methyl}-2-methylphenyl)oxy]-2-methylpropanoic acid]
1.7	> 25	0.204	Cc1cc(CNC(=O)c2cc(-c3ccc(C(C)(C)C)cc3)n(Cc3ccccc3)n2)ccc1OC(C)(C)C(=O)O [Example 50, 2-({4-[({[5-[4-(1,1-dimethylethyl)phenyl]-1-(phenylmethyl)-1H-pyrazol-3-yl]carbonyl}amino)methyl]-2-methylphenyl}oxy)-2-methylpropanoic acid]
0.376	–	0.07	Cn1nc(C(=O)NCc2ccc(OC(C)(C)C(=O)O)cc2)cc1-c1ccc(C(C)(C)C)cc1 [Example 17]
0.008	2.06	0.002	Cc1cc(CNC(=O)c2cc(-c3ccc(CC(C)C)cc3)n(C)n2)ccc1OC(C)(C)C(=O)O [Example 7, 2-methyl-2-[(2-methyl-4-{[({1-methyl-5-[4-(2-methylpropyl)phenyl]-1H-pyrazol-3-yl}carbonyl)amino]methyl}phenyl)oxy]propanoic acid]
0.748	> 25	0.444	Cc1cc(CNC(=O)c2cc(-c3ccc(C(C)(C)C)cc3)nn2CCN2CCOCC2)ccc1OC(C)(C)C(=O)O [Example 55, 2-[(4-{[({3-[4-(1,1-dimethylethyl)phenyl]-1-[2-(4-morpholinyl)ethyl]-1H-pyrazol-5-yl}carbonyl)amino]methyl}-2-methylphenyl)oxy]-2-methyl propanoic acid]
0.006	> 25	1.3	Cc1cc(CNC(=O)Cc2cc(-c3ccc(C(C)(C)C)cc3)n(C)n2)ccc1OC(C)(C)C(=O)O [Example 44, 2-[(4-{[({5-[4-(1,1-dimethylethyl)phenyl]-1-methyl-1H-pyrazol-3-yl}acetyl)amino]methyl}-2-methylphenyl)oxy]-2-methylpropanoic acid]
1.66	> 25	0.293	Cc1cc(CNC(=O)c2cc(-c3cccc(N4CCCCC4)c3)nn2C)ccc1OC(C)(C)C(=O)O [Example 42, 2-methyl-2-{2-methyl-4-[({[1-methyl-3-(3-piperidin-1-ylphenyl)-1H-pyrazol-5-yl]carbonyl}amino)methyl]phenoxy}propanoic acid]
0.069	> 25	0.032	C=CCn1nc(C(=O)NCc2ccc(OC(C)(C)C(=O)O)c(C)c2)cc1-c1ccc(C(C)(C)C)cc1 [Example 62, 2-({4-[({[5-[4-(1,1-dimethylethyl)phenyl]-1-(2-propen-1-yl)-1H-pyrazol-3-yl]carbonyl}amino)methyl]-2-methylphenyl}oxy)-2-methylpropanoic acid]
1.09	–	0.163	Cn1nc(-c2ccc(C(C)(C)C)cc2)cc1C(=O)NCc1ccc(OC(C)(C)C(=O)O)cc1 [Example 16, 12-[(4-{[({3-[4-[1,1-dimethylethyl)phenyl]-1-methyl-1H-pyrazol-5-yl}carbonyl)amino]methyl}phenyl)oxy]-2-methylpropanoic acid]
0.059	1.15	0.044	C=CCn1nc(-c2ccc(C(C)(C)C)cc2)cc1C(=O)NCc1ccc(OC(C)(C)C(=O)O)c(C)c1 [Example 47, 2-({4-[({[3-[4-(1,1-dimethylethyl)phenyl]-1-(2-propen-1-yl)-1H-pyrazol-5-yl]carbonyl}amino)methyl]-2-methylphenyl}oxy)-2-methylpropanoic acid]
–	5.45	0.014	Cc1cc(CNC(=O)c2cc(-c3ccc(C(C)(C)C)cc3)n(C)n2)ccc1OC(C)(C)C(=O)O [Example 1, 2-[(4-{[({5-[4-(1,1-dimethylethyl)phenyl]-1-methyl-1H-pyrazol-3-yl)carbonyl)amino]methyl}-2-methylphenyl)oxy]-2-methylpropanoic acid]
0.554	> 10	2.9	COc1cc(CNC(=O)c2cc(-c3ccc(C(C)C)cc3)nn2C)ccc1OC(C)(C)C(=O)O [Example 10]
0.008	> 25	0.002	Cc1cc(CNC(=O)c2cc(-c3ccc(C(C)(C)C)cc3)n(C)n2)cc(C)c1OC(C)(C)C(=O)O [Example 25, 2-{4-[({[5-(4-tert-butylphenyl)-1-methyl-1H-pyrazol-3-yl]carbonyl}amino)methyl]-2,6-dimethylphenoxy}-2-methylpropanoic acid]
0.212	> 10	0.1	C=CCc1cc(CNC(=O)c2cc(-c3ccc(C(C)(C)C)cc3)nn2C)ccc1OC(C)(C)C(=O)O [Example 3]
0.02	1.06	0.076	Cc1cc(CNC(=O)c2cc(-c3ccc(N4CCCC4)cc3)n(C)n2)ccc1OC(C)(C)C(=O)O [Example 20, 2-methyl-2-[(2-methyl-4-{[({1-methyl-5-[4-(1-pyrrolidinyl)phenyl]-1H-pyrazol-3-yl}carbonyl)amino]methyl}phenyl)oxy]propanoic acid]
–	1.55	0.02	Cc1cc(CNC(=O)c2cc(-c3ccc(-c4ccccc4)cc3)n(C)n2)ccc1OC(C)(C)C(=O)O [Example 22, 2-({4-[({[5-(4-biphenylyl)-1-methyl-1H-pyrazol-3-yl]carbonyl}amino)methyl]-2-methylphenyl}oxy)-2-methylpropanoic acid]
0.028	–	0.094	C=CCOc1ccc(-c2cc(C(=O)NCc3ccc(OC(C)(C)C(=O)O)c(C)c3)nn2C)cc1 [Example 59, 2-methyl-2-[(2-methyl-4-{[({1-methyl-5-[4-(2-propen-1-yloxy)phenyl]-1H-pyrazol-3-yl}carbonyl)amino]methyl}phenyl)oxy]propanoic acid]
–	2.17	0.05	Cc1cc(CNC(=O)c2cc(-c3ccc(C(C)(C)C)cc3)nn2C)ccc1OC(C)(C)C(=O)O [Example 11, 2-[(4-{[({3-[4-(1,1-dimethylethyl)phenyl]-1-methyl-1H-pyrazol-5-yl}carbonyl)amino]methyl}-2-methylphenyl)oxy]-2-methylpropanoic acid]
